Test results taken from patent publication US8778310B2, “Fluorescent chlorotoxin conjugate and method for intra-operative visualization of cancer” (priority 2005, dated 2014).

Tests used:
[1] = tested on: glioma and normal brain histologic sections; assay: Staining of histologic sections of glioma and normal brain; parameters: species or system human
9L glioma xenografts = assay: In vivo biophotonic imaging of mice with 9L glioma xenografts; parameters: species or system mouse; details: versus control mice without 1,10-phenanthroline
Experimental: All mouse studies were conducted in accordance with IACUC approved protocols. Subcutaneous xenografts were established in nu/nu (nude) mice using 9L, a rat gliosarcoma cell line (ATCC), and RH30, a rhabdomyosarcoma cell line. The xenografts were established using 1 million 9L or RH30 cells suspended in serum free media and matrigel at a 1:1 ratio. Intracranial xenografts were established by stereotaxic injection of 1 million 9L cells suspended in 10 μl PBS into the brain 3 mm lateral and posterior to the bregma. ND2:SmoA1 medulloblastoma mice, TRAMP prostate cancer mice and Apc^1638N intestinal adenoma and adenocarcinoma mice were as previously described. See, Fodde, R., et al., A targeted chain-termination mutation in the mouse Apc gene results in multiple intestinal tumors. Proc. Natl. Acad. Sci. U.S.A., 1994. 91(19): p. 8969-73; Greenberg, N. M., et al., Prostate cancer in a transgenic mouse. Proc. Natl. Acad. Sci. U.S.A., 1995. 92(8): p. […]
CTX:Cy5.5 (0.1-0.2 ml of 10-20 μM) was administered intravenously by tail vein injection. […] Relevant organs and tumors were dissected from some of the animals and fluorescence image were obtained immediately following dissection. In time course experiments, all images were captured using identical system settings and fluorescence emission was normalized to photons per second per centimeter squared per steradian (p/s/cm^2/sr).

9L glioma cells = assay: In vitro imaging of CTX:Cy5.5 binding to 9L glioma cells (NIR/confocal microscopy); type: cell-based, rat; details: pre-incubation with MMP-2 inhibitor
Experimental: 9L/lacZ gliosarcoma cells (ATCC, VA) and primary human foreskin fibroblast (HFF) were maintained in DMEM and RPMI medium both supplemented with 1% sodium pyruvate, 1% streptomycin/penicillin and 10% FBS (Hyclone, UT), respectively. 2×10^5 cells were seeded on sterile cover slips 36 hrs prior to labeling and confocal microscopy. Cells were cultured with 1 ml of CTX:CY5.5 conjugate (1 uM) for 2 hours in a 37° C. humidified incubator maintained at 5% CO2. Cover slips were washed 2 times in cell culture medium and 2 times in PBS buffer. Following this step, cell membranes were stained with 1 μM solution of FM 1-43FX (Molecular Probes, OR) for 20 min in dark at room temperature, washed 2 times in PBS and fixed in 4% paraformaldehyde. Cellular nuclei were stained with 4′,6-diamidino-2-phenylndole (DAPI, Sigma Aldrich, MO).
Confocal images were acquired using a DeltaVision SA3.1 Wide-Field Deconvolution Microscope (Applied Precision, WA) equipped with DAPI, TRITC, and Cy5 filters. Image processing was performed using SoftWoRX (Applied Precision, WA).
To determine whether CTX retained specific binding to glioma cells after conjugation to Cy5.5, we incubated the conjugate with 9L glioma cells and primary fibroblasts and evaluated binding by NIR microscopy. […]

[2] = previously reported; cited from earlier work
[3] = type: in vivo, mouse
Experimental: To further assess potential CTX toxicity at doses used for optical imaging, complete necropsy was performed on mice two weeks after exposure to CTX.

Cy5.5
staining of glioma section [1]: does not stain glioma

c1cnc2c(c1)ccc1cccnc12 [1,10-phenanthroline]
Specific binding of CTX:Cy5.5 in mice pre-treated with 1,10-phenanthroline (9L glioma xenografts): six-fold lower | Binding of CTX:Cy5.5 to 9L glioma cells after pre-incubation with 1,10-phenanthroline (9L glioma cells): blocked

chlorotoxin [CTX]
locomotor activity in mice [2]: reduce locomotor activity | laboratory evaluation (electrolytes, blood counts, liver and kidney function) ([3]; doses used for optical imaging): no alteration | toxicity overall ([3]; doses used for optical imaging): no toxicity could be detected | pathologic changes in organs (necropsy) ([3]; doses used for optical imaging, b143: two weeks after exposure): indistinguishable from control mice | open field observation ([3]; injected mice versus control mice): indistinguishable from control mice
